We go through one compound from US9855277B2, “Use of 5H-dibenz/b,f/azepine-5-carboxamide derivatives for treating fibromyalgia” (BIAL—PORTELA & CA, S.A., priority 2009, dated 2018).

What all share (type): in vivo
The test system of data set [1] is mice with chronic constriction nerve injury (CCI). Briefly: Paw withdrawal threshold (von Frey filaments) in CCI mice. Here is the method:
The materials used were (as also indicated in FIGS. 1 and 2): • Vehicle: 0.5% hydroxy-propyl-methyl-cellulose (HPMC) in water, 5 ml/kg, p.o.; • 50 mg/kg, 100 mg/kg, 150 mg/kg and 200 mg/kg: ESL at 50, 100, 150 and 200 mg/kg, p.o.; • GP 100 mg/kg: gabapentin 100 mg/kg, p.o.
The potential analgesic effects of orally dosed ESL was investigated at doses of 50, 100, 150 and 200 mg/kg, on the paw withdrawal threshold (PWT) and these effects compared with those of the dose vehicle and gabapentin, the latter at 100 mg/kg, in a mouse model of chronic constriction nerve injury (CCI).
Each animal received a single oral dose of either ESL (50, 100, 150, or 200 mg/kg), or gabapentin (100 mg/kg in saline) or vehicle (5 ml/kg). Behavioural testing was then performed twice, at approximately 60 and 120 minutes post-dose, to investigate the effect of treatments.

Another data set deals with Mice (NMRI). The experiment in a line: Formalin paw test. Particulars: 300 mg/kg p.o. The protocol:
The method, which detects analgesic activity, follows that described by Wheeler-Aceto et al (see […]-ACETO, H. & A., C. (1991), “Standardization of the rat paw formalin test for the evaluation of analgesics”, Psychopharmacology, 104, 35-44). Mice (NMRI) were given an intraplantar injection of 5% formalin (25 μl) into the posterior left paw. […] The time spent licking was counted for 15 minutes, beginning 15 minutes after injection of formalin. 10 mice were studied per group. The test was performed blind. ESL and carbamazepine (CBZ) were tested at the doses of 10, 30, 100 and 300 mg/kg p.o., and oxcarbazepine (OXC) and R-Lic were tested at the doses of 100 and 300 mg/kg p.o., administered 60 minutes before the test (i.e. 45 minutes before formalin), and compared with a vehicle control group in each experiment. Morphine (64 mg/kg p.o.), administered under the same experimental conditions, was used as reference substance.

Data set [2] has as its system dorsal horn neurones of CCI mice. Briefly: Spontaneous activity of dorsal horn neurones in CCI mice (extracellular recording). Particulars: ESL 100 mg/kg i.p.; for spontaneous activity of dorsal horn neurones, firing rate: 5 preparations. The source says:
Adult male BL CB F1 mice, weighing 25-30 g at the time of surgery and 26-38 g at the time of electrophysiological experiments, were used. The baseline paw withdrawal threshold (PWT) was examined using a series of graduated von Frey hairs (see below) on 3 consecutive days before surgery and re-assessed on the 7th and on the 14th days after surgery, before electrophysiological recording. The animals were killed by an overdose of pentobarbitone on completion of the study. The chronic constriction injury (CCI) model was prepared following the standard protocols described previously (Bennett and Xie, 1988). Mice were anaesthetised and the lateral side of the left thigh was shaved and sterilized with 75% ethanol. A small incision of approximately 0.5 cm was made parallel to the femur. The muscle was carefully separated to expose the sciatic nerve. Three loose ligatures were placed on the sciatic nerve with 5-0 suture silk thread at approximately 1 mm intervals. The wound was closed in layers with suture silk 4-0 and the animals were placed in a recovery chamber with the temperature controlled and set at 30° C. A dose of amoxicillin (0.02 mL, 3 mg) was routinely injected i.p. after surgery to prevent infection. The animals were returned to their home cages after complete recovery of consciousness and freedom of movement. For the first 2 days after surgery, the animals were closely monitored at least twice daily and subsequently, at least once daily until compound testing. The baseline PWT was tested for 3 consecutive days before surgery and re-assessed on the 7th and 14th days after surgery to monitor the development of mechanical allodynia. Only those mice showing significant mechanical allodynia (PWT≦0.2 g) were selected for subsequent electrophysiological experiments. After behavioural validation, the mice were re-anaesthetised, body temperature was monitored and controlled within a physiological range via a thermo-blanket system, and the electrocardiogram (ECG) was routinely monitored through a pair of stainless steel needles inserted into the left fore-paw and right hind-paw. A laminectomy was carried out to expose the L2-L6 segments of the spinal cord. In some experiments, spinalisation at the C2-C3 level or section of the L4-L6 dorsal roots of the left side at a site near the root entry zone to the spinal cord, was performed. A protective pool was formed and filled with warm mineral oil to cover the spinal cord and the sectioned roots. Extracellular unitary recordings of spontaneous activity from the spinal dorsal horn neurones were achieved by using a carbon microelectrode driven by an electrode manipulator. The electrical signals were recorded through a CED micro-1401 interface to a PC for later off-line analysis. Recording from a dorsal horn neurone displaying spontaneous electrical discharge was undertaken for a period of at least 10 min for control and 40 min after either vehicle or ESL administration. The suspension was prepared with a vehicle containing 30% DMSO in 0.9% sodium chloride to a dose concentration of 50 mg/mL. The vehicle and ESL were injected intraperitoneally at a volume of 2 mL/kg through a needle connected with a 1 mL syringe placed prior to the experiment. Each animal received only one treatment of either vehicle or ESL (100 mg/kg). Spontaneous activity was counted as firing rate per minute. An average firing rate over 5 min periods, recorded consecutively immediately prior to vehicle injection or ESL was used as control (and standardized as 100%). The average firing rate over a 5 min period recorded 30-35 min after vehicle or ESL injection was used to quantify firing rate following treatment and compared with the control level. Due to the high level of variation in frequency of spontaneous ectopic discharge from preparation to preparation; all data were standardized relative to control. All data were expressed as mean±SEM. A paired Student's t-test (two-way) was used to compare different time points in the same group. […]

Data set [3] is described as follows: Plasma bioanalysis in CCI mice after oral ESL. Particulars: oral ESL.

Each structure is given as a SMILES string.

In the case of `CC(=O)O[C@H]1Cc2ccccc2N(C(N)=O)c2ccccc21` [ESL, S-(−)-10-acetoxy-10,11-dihydro-5H-dibenz/b,f/azepine-5-carboxamide], in data set [1] (50 mg/kg group on 14th to 16th day, P<0.05), the “PWT in the contralateral limbs vs vehicle group” value is on record as “significantly higher”. The “potency and efficacy compared with reference compound” value in data set [1] (CCI mice, PWT) was “potency and efficacy similar to the reference compound, gabapentin”. Moreover, the “PWT in the ipsilateral hindpaw” value in data set [1] (ESL 50, 100, 150, 200 mg/kg p.o., single dose, tested about 60 and 120 min post-dose) is on record as “dose-dependently increased the PWT”. Also, in data set [1] (ESL 50-200 mg/kg p.o., vs vehicle), the “PWT in the contralateral side” value is reported as “did not significantly affect the PWT”. In addition, in data set [1] (ESL p.o., ipsilateral hindpaw), the “duration of the effect on PWT after dosing” value is given as “more than 2 hours”. Besides, the “licking in the formalin test at 300 mg/kg” value with Mice (NMRI) is listed as “abolished licking”. In addition, the “spontaneous activity, % of control” value in data set [2] (dorsal root (L4-L6) sectioned CCI mice, 30-35 min, P<0.01 vs vehicle) is given as 29.5±13.3 % of control. Also, the “spontaneous activity of dorsal horn neurones, average firing rate” value in data set [2] (dorsal root (L4-L6) sectioned CCI mice, 30-35 min, control 378.1±85.4, 8 preparations) turned out to be 97.5±39.0 imps/min. Besides, the “spontaneous activity, % of control level” value in data set [2] (intact CCI mice, 30-35 min, P<0.01 vs control) is given as 26.3±10.1 % of control. Besides, the “spontaneous activity of dorsal horn neurones, firing rate” value in data set [2] (intact CCI mice, 30-35 min after injection, control 780.7±462.5) came out at 113.6±43.9 imps/min. Further, the “spontaneous activity, % of control levels” value in data set [2] (spinalised (C2-C3) CCI mice, 30-35 min, P<0.001) is given as 14.8±6.8 % of control. For the same compound, the “spontaneous activity of dorsal horn neurones, firing rate” value in data set [2] (spinalised (C2-C3) CCI mice, 30-35 min, control 504.5±286.1, P>0.05) is on record as 31.2±12.7 imps/min. For the same compound, in data set [3], the “main metabolite in plasma” value is reported as “mainly to eslicarbazepine” and the “time to complete metabolism after administration (plasma)” value was ≤ 1 h.
